Key:
[1] = molecular target: T1, SHBG (Homo sapiens, UniProt P04278); assay: Concentration dependence: remaining SHBG activity to 5α-dihydrotestosterone (DHT) with varying concentrations of the compounds; assay type: binding; settings: DHT concentration of 9.6 nM
T1 sequence (P04278 30-402): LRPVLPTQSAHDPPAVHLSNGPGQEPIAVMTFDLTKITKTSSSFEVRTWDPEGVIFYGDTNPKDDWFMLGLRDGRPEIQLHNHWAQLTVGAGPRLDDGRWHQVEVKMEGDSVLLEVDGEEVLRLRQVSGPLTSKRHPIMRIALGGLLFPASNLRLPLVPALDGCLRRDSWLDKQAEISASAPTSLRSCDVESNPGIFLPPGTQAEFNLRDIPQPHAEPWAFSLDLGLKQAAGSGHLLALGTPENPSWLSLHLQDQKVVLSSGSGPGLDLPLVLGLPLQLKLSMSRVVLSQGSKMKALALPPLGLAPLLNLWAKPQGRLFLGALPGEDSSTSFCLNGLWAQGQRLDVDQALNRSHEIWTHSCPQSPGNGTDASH
Method: In order to determine the strength of the interaction of the compounds produced according to the present invention, tests were carried out investigating remaining SHBG activity to 5α-dihydrotestosterone (DHT) with varying concentrations of the compounds, DHT being a natural hormone that binds with SHBG.

[2] = molecular target: T1, SHBG; assay: Estimation of equilibrium (association) constants Ka inhibitor/SHBG, assuming competitive binding; settings: association constant inhibitor/SHBG; Table 3
Source text: With the assumption of competitive binding the estimation of equilibrium constants is possible. Two reactions exist in competition with one another: [drawing 50] [drawing 51]

| Ka [2] | Remaining SHBG Activity ([1]; @ 3.2*10^-4M compound) | Remaining SHBG Activity ([1]; @ 6*10^-4M compound) | Structure (SMILES) | Remaining SHBG Activity ([1]; @ 6.2*10^-4M compound) |
| --- | --- | --- | --- | --- |
| – | – | – | COc1cc(CC2COC(C)(C)OCC2Cc2ccc(O)c(OC)c2)ccc1O (centres unmarked) [III'a] | 75 % @ 6.2*10^-4M |
| 20000 M⁻¹ | 50 % @ 3.2*10^-4M | – | COc1cc(CC(CO)C(CO)Cc2ccc(O)c(OC)c2)ccc1O (centres unmarked) [IIIa] | – |
| 60000 M⁻¹ | – | 30 % @ 6*10^-4M | COC(=O)C(Cc1ccc(O)c(OC)c1)C(Cc1ccc(O)c(OC)c1)C(=O)OC (centres unmarked) [IIa] | – |

Source: patent EP0797564B1, “LIGNANS, A PROCESS FOR THEIR PRODUCTION AND PHARMACEUTICAL COMPOSITIONS AND USES THEREOF” (KANOLDT ARZNEIMITTEL GMBH, priority 1995, dated 1997)
